How the values were obtained:
OR51E1 = biological target: T1, OR51E1 (Homo sapiens, UniProt Q8TCB6); assay: Luciferase reporter gene assay, OR51E1 expressed in HEK293 cells; format: cell-based; conditions: for Inhibition ratio of OR51E1 response: response to hexanoic acid, test substance added together with hexanoic acid, HEK293
T1 construct: expressed in transfected cells; host or cells: HEK293
T1 sequence (Q8TCB6 1-318): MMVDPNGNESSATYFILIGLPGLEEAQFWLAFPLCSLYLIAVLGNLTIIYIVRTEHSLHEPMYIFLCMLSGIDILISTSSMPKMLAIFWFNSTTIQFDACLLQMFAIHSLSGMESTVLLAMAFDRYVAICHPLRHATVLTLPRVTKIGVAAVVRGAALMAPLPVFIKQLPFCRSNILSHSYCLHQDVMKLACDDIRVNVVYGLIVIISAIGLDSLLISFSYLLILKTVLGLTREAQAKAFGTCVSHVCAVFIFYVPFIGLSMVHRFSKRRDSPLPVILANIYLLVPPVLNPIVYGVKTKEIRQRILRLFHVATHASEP
Protocol: Cloning of human olfactory receptors was performed based on the sequence information registered in GenBank, through PCR with human genomic DNA female (G1521: Promega) as a template. Each of the genes amplified through PCR was inserted into a pENTR vector (Invitrogen) according to an instruction manual. Then, the gene-inserted vector was digested with NotI and AscI, and the obtained fragments were inserted into NotI and AscI sites located downstream of the Flag-Rho tag sequence in the pME18S vector.
Each of the 350 types of human olfactory receptors was expressed in HEK293 cells. A reaction solution having a composition shown in Table 2 was prepared on a clean bench, and left to stand for 15 minutes. The solution was dispensed to each well of a 96-well plate (BD). Subsequently, […] cells (100 μL, 3×10^5 cells/cm^2) were seeded in each well and cultured for 24 hours in an incubator at 37° C. and under 5% CO2 conditions.
The olfactory receptor expressed in HEK293 cell was conjugated with cell-intrinsic Gas to activate adenylate cyclase, and thereby the level of intracellular cAMP was increased. For the measurement of the response to odor in this study, the luciferase reporter gene assay was used, in which an increase in the amount of intracellular cAMP was monitored by using the emission value originating from firefly luciferase gene (fluc2P-CRE-hygro) as an indicator. Furthermore, a gene product obtained by fusing renilla luciferase gene in the downstream of CMV promoter (hRluc-CMV) was simultaneously introduced, and this was used as an internal standard for correcting an error in the transgenesis efficiency or the number of cells. The medium was removed from the culture prepared in the above-described section 3) by using a Pipetman, and 75 μl of a solution containing an odor substance (1 mM hexanoic acid or 300 μM nonanoic acid) prepared in CD293 medium (Invitrogen) was added thereto. The cells were cultured for 4 hours in a CO2 incubator, and the luciferase gene was sufficiently expressed in the cells. For the measurement of luciferase activity, the measurement was carried out by using a Dual-Glo™ luciferase assay system (Promega) according to the operation manual of the product. A value calculated by dividing the emission value, derived from a firefly luciferase induced by the stimulation with an odor substance, by the emission value in cells that were not-stimulated with an odor substance, was designated as a fold increase, and used as an index of response intensity.
OR2W1, OR10A6, OR51E1, OR51I2, and OR51L1 were respectively expressed in HEK293 cells by the same method as that used in Example 1, and a luciferase assay was carried out. In the luciferase assay, hexanoic acid was used as the odorous substance, and test substances were added together with hexanoic acid. The response of the olfactory receptors to hexanoic acid was measured, and a decrease in the receptor response to the addition of test substances was evaluated.
The inhibition ratios of the receptor response to test substances were calculated as follows. The emission value (Y) obtained from the cells in which the same receptors were introduced but no odor stimulation was conducted, was subtracted from the emission value derived from firefly luciferase (X) induced by odor stimulation with hexanoic acid alone. Similarly, the emission value (Y) obtained from the cells in which no odor stimulation was conducted, was subtracted from the emission value (Z) caused by stimulation with a mixture of hexanoic acid and a test substance. By the following calculation formula, the inhibitory activity of the test substance to receptor response was calculated based on the increment of the emission value (X−Y) caused by stimulation of hexanoic acid alone. Multiple independent experiments were performed in duplicate, and the average of each experiment was obtained. Inhibition ratio (%)={1−(Z−Y)/(X−Y)}×100 […]

[1] = Sensory evaluation test of nonanoic acid odor inhibition; format: in vivo; conditions: test substance diluted 10 times with propylene glycol (FIG. 6)
Protocol: (§1) Cotton balls were introduced into a glass bottle (Hakuyo Glass Co., Ltd. No. 11, capacity 110 ml), and hexanoic acid diluted 100 times with propylene glycol, nonanoic acid diluted 10 times with propylene glycol, or isovaleric acid diluted 1000 times with propylene glycol, as a malodor, and a test substance were added dropwise in an amount of […] to the cotton balls. The glass bottle was left to stand overnight at room temperature, and the odor molecules were sufficiently volatilized in the glass bottle. A sensory evaluation test was carried out by a panel of three panelists (5 panelists for isovaleric acid), and while the intensity of odor in the case of adding dropwise the malodor alone was rated as 5, the intensity of the malodor in the case of incorporating a test substance was evaluated on the basis of a system of 20 grades from 0 point to 10 points (0.5 points per grade). […]

[2] = Sensory evaluation test of isovaleric acid odor inhibition; format: in vivo; conditions: test substance diluted 1000 times with propylene glycol, 5 panelists (FIG. 7)
Protocol: as §1

[3] = Sensory evaluation test of cresol odor inhibition (specificity); format: in vivo; conditions: cresol and test substance each diluted 100 times with propylene glycol (FIG. 8)
Protocol: Cotton balls were introduced into a glass bottle (Hakuyo Glass Co., Ltd. No. 11, capacity 110 ml), and hexanoic acid diluted 100 times with propylene glycol, nonanoic acid diluted 10 times with propylene glycol, or isovaleric acid diluted 1000 times with propylene glycol, as a malodor, and a test substance were added dropwise in an amount of […] to the cotton balls. The glass bottle was left to stand overnight at room temperature, and the odor molecules were sufficiently volatilized in the glass bottle. A sensory evaluation test was carried out by a panel of three panelists (5 panelists for isovaleric acid), and while the intensity of odor in the case of adding dropwise the malodor alone was rated as 5, the intensity of the malodor in the case of incorporating a test substance was evaluated on the basis of a system of 20 grades from 0 point to 10 points (0.5 points per grade).
In the experiment, cresol diluted 100 times with propylene glycol was used as the malodor, and florhydral diluted 100 times with propylene glycol was used as the test substance.

| Compound | Inhibition ratio of OR51E1 response (OR51E1) | Inhibition of nonanoic acid odor (in words) [1] | Inhibition of OR51E1 response to hexanoic acid (in words) (OR51E1; 1 mM hexanoic acid, test substance 3, 10, 30, 100, 300 μM (FIG. 4)) | Inhibition of isovaleric acid odor (in words) [2] | Inhibition of cresol odor (in words) [3] |
| --- | --- | --- | --- | --- | --- |
| 2,4,6-trimethyl-3-cyclohexene-1-carboxyaldehyde, 3,5,6-trimethyl-3-cyclohexene-1-carboxyaldehyde [Isocyclocitral] | 1 (Inhibition ratio: 50% or higher) |  |  |  |  |
| CC(C)c1cccc(C(C)CC=O)c1 (stereo not drawn) [Florhydral, 3-(3-isopropylphenyl)-butyraldehyde] | 1 (Inhibition ratio: 50% or higher) | the odors were also inhibited | in a concentration-dependent manner | the odors were also inhibited | not inhibited |

Reference: patent publication US9526680B2, “Method for searching for malodor control agent, malodor control agent, and malodor control method” (Kao Corporation, priority 2010, dated 2016)
